Results on 1 molecule are retold here after paper PMC3111596 (Biochemistry, 2011).

SMILES strings stand for the structures.

In the assay the target is N-terminal truncated LSD1 (171–852 aa) (Homo sapiens, UniProt O60341). Nature of the assay: LSD1-folate binding by back-scattering interferometry. The note with it: N-terminal truncated LSD1 vs full-size LSD1.

For `Nc1nc2c(c(=O)[nH]1)NC(CNc1ccc(C(=O)N[C@@H](CCC(=O)N[C@@H](CCC(=O)N[C@@H](CCC(=O)N[C@@H](CCC(=O)N[C@@H](CCC(=O)O)C(=O)O)C(=O)O)C(=O)O)C(=O)O)C(=O)O)cc1)CN2` (mixture of isomers) [(6R,S)-THF-Glu5, Tetrahydrofolate pentaglutamate], the “Affinity of truncated LSD1 compared with full-size protein” value is reported as “same affinity as the full-size protein”.
